In ChEMBL document CHEMBL3352564, “Synthesis, Structure, and SAR of Tetrahydropyran-Based LpxC Inhibitors” (ACS Med Chem Lett, 2014):
Converted amounts (≈) assume the structure as drawn.

Key:
Pseudomonas aeruginosa [1] = assay: Antimicrobial activity against Pseudomonas aeruginosa PAO1 ARC545 by CLSI dilution method; format: functional
[2] = biological target: T1, UDP-3-O-acyl-N-acetylglucosamine deacetylase (Pseudomonas aeruginosa (strain ATCC 15692 / PAO1 / 1C / PRS 101 / LMG12228), UniProt P47205); assay: Inhibition of Pseudomonas aeruginosa LpxC using UDP-3-O-(R-3-hydroxydecanoyl)-N-acetylglucosamine as substrate preincubated for 20 mins before substrate addition by LC/MS/MS analysis
T1 sequence (P47205 whole entry): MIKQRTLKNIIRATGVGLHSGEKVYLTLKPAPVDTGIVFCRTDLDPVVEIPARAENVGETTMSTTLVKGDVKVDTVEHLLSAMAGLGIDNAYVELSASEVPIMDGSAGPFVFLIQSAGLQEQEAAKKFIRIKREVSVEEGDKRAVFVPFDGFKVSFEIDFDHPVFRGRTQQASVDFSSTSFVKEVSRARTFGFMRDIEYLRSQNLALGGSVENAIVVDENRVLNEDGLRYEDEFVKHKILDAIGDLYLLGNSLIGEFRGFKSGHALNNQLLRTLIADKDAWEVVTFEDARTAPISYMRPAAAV

Pseudomonas aeruginosa [3] = assay: Antimicrobial activity against MexABCDXY-deficient Pseudomonas aeruginosa PAO1 ARC546 by CLSI dilution method; format: functional
Escherichia coli [4] = assay: Antimicrobial activity against TolC-deficient Escherichia coli ARC524 W3110 harboring mutant by CLSI dilution method; format: functional
Escherichia coli [5] = assay: Antimicrobial activity against Escherichia coli ARC523 W3110 harboring mutant by CLSI dilution method; format: functional
[6] = biological target: Collagenase 3 (Homo sapiens) (UniProt P45452); assay: Inhibition of MMP13 (unknown origin) at 30 uM
[7] = biological target: 72 kDa type IV collagenase (Homo sapiens) (UniProt P08253); assay: Inhibition of MMP2 (unknown origin) at 30 uM
[8] = biological target: Collagenase 3 (Homo sapiens) (UniProt P45452); assay: Inhibition of MMP13 (unknown origin) at 10 uM
[9] = biological target: 72 kDa type IV collagenase (Homo sapiens) (UniProt P08253); assay: Inhibition of MMP2 (unknown origin) at 10 uM
[10] = biological target: Collagenase 3 (Homo sapiens) (UniProt P45452); assay: Inhibition of MMP13 (unknown origin) at 15 uM

Sequence of 72 kDa type IV collagenase (Homo sapiens) (P08253 110-660 limits assumed): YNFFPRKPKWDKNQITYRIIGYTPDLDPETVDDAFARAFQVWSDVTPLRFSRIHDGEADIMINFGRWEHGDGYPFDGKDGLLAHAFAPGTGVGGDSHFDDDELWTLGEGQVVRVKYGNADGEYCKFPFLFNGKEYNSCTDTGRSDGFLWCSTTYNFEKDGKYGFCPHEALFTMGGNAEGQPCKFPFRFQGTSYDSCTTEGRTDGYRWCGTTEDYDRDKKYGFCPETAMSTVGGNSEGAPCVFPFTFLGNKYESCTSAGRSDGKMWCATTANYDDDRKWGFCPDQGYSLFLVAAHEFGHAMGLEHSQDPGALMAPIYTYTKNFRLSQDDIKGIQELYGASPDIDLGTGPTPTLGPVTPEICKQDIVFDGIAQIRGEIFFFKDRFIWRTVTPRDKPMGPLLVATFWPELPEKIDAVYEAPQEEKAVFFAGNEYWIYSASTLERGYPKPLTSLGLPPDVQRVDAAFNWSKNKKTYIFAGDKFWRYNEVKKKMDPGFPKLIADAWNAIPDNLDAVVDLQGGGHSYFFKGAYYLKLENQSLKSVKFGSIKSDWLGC

SMILES	MIC (Pseudomonas aeruginosa [1]) [µM]	IC50 [2] [nM]	MIC (Pseudomonas aeruginosa [3]) [µM]	MIC (Escherichia coli [4]) [µM]	MIC (Escherichia coli [5]) [µM]	inhibition [6] [%]	inhibition [7] [%]	inhibition [8] [%]	inhibition [9] [%]	inhibition [10] [%]
COC1CCC(COc2ccc(C#Cc3ccc(CN4CCOCC4)cc3)cc2)(C(=O)NO)CC1 (stereo not given)	> 200	8.6	3.13 (≈ 1.5 µg/mL)	6.25 (≈ 2.99 µg/mL)	100 (≈ 47.9 µg/mL)	–	–	–	–	–
CC(=O)N1CCN(Cc2ccc(C#Cc3ccc(OCC4(C(=O)NO)CCOCC4)cc3)cc2)CC1	50 (≈ 24.6 µg/mL)	3	0.78 (≈ 0.383 µg/mL)	0.39 (≈ 0.192 µg/mL)	25 (≈ 12.3 µg/mL)	–	–	–	–	–
C[C@@H](O)[C@H](NC(=O)c1ccc(C#Cc2ccc(CN3CCOCC3)cc2)cc1)C(=O)NO	1.56 (≈ 0.682 µg/mL)	–	< 0.2	< 0.2	< 0.2	30	12	–	–	–
O=C(NO)C1(COc2ccc(-c3ccccc3)cc2)CCOCC1	100 (≈ 32.7 µg/mL)	8.7	6.25 (≈ 2.05 µg/mL)	> 200	> 200	–	–	–	–	–
O=C(NO)C1(COc2ccc(OCc3ccccc3)cc2)CCOCC1	200 (≈ 71.5 µg/mL)	14	6.25 (≈ 2.23 µg/mL)	200 (≈ 71.5 µg/mL)	> 200	–	–	–	–	–
O=C(NO)C1(COc2ccc(Oc3ccccc3)cc2)CCOCC1	> 200	92	25 (≈ 8.58 µg/mL)	> 200	> 200	–	–	–	–	–
O=C(NO)C1(COc2ccc(C#Cc3ccc(CN4CCN(CCn5ccnc5)CC4)cc3)cc2)CCOCC1	50 (≈ 27.2 µg/mL)	2	0.78 (≈ 0.424 µg/mL)	0.78 (≈ 0.424 µg/mL)	6.25 (≈ 3.4 µg/mL)	–	–	80	93	–
COc1ccc(CNCc2ccc(C#Cc3ccc(OCC4(C(=O)NO)CCOCC4)cc3)cc2)cc1	100 (≈ 50.1 µg/mL)	10	6.25 (≈ 3.13 µg/mL)	12.5 (≈ 6.26 µg/mL)	50 (≈ 25 µg/mL)	–	–	–	–	–
O=C(NO)C1(COc2ccc(C#CC#Cc3ccccc3)cc2)CCOCC1	> 200	33	> 200	50 (≈ 18.8 µg/mL)	200 (≈ 75.1 µg/mL)	–	–	–	–	–
O=C(NO)C1(COc2ccc(C#Cc3ccc(CN4CCOCC4)cc3)cc2)CCC(O)CC1 (stereo not given)	> 200	82.5	25 (≈ 11.6 µg/mL)	25 (≈ 11.6 µg/mL)	> 200	–	–	–	–	–
O=C(NO)C1(CSc2ccc(C#Cc3ccc(CN4CCOCC4)cc3)cc2)CCOCC1	25 (≈ 11.7 µg/mL)	0.2	0.39 (≈ 0.182 µg/mL)	< 0.2	3.13 (≈ 1.46 µg/mL)	–	–	–	–	–
O=C(NO)C1(COc2ccc(C#Cc3ccc(CN4CCN(CCN5CCOCC5)CC4)cc3)cc2)CCOCC1	50 (≈ 28.1 µg/mL)	2.7	0.78 (≈ 0.439 µg/mL)	1.56 (≈ 0.878 µg/mL)	25 (≈ 14.1 µg/mL)	–	–	–	–	–
CC(C)N1CCN(Cc2ccc(C#Cc3ccc(OCC4(C(=O)NO)CCOCC4)cc3)cc2)CC1	100 (≈ 49.2 µg/mL)	7.5	3.13 (≈ 1.54 µg/mL)	12.5 (≈ 6.15 µg/mL)	100 (≈ 49.2 µg/mL)	–	–	–	–	–
O=C(NO)C1(COc2ccc(C#Cc3ccc(CN4CCOCC4)cc3)cc2)CCOCC1	100 (≈ 45.1 µg/mL)	4.4	1.56 (≈ 0.703 µg/mL)	1.56 (≈ 0.703 µg/mL)	12.5 (≈ 5.63 µg/mL)	–	–	82	94	–
O=C(NO)C1(CSc2ccc(Oc3ccc(Cl)cc3)cc2)CCOCC1	50 (≈ 19.7 µg/mL)	7.4	6.25 (≈ 2.46 µg/mL)	50 (≈ 19.7 µg/mL)	> 200	–	–	–	–	99
CN1CCN(Cc2ccc(C#Cc3ccc(OCC4(C(=O)NO)CCOCC4)cc3)cc2)CC1	100 (≈ 46.4 µg/mL)	6.1	1.56 (≈ 0.723 µg/mL)	3.13 (≈ 1.45 µg/mL)	50 (≈ 23.2 µg/mL)	–	–	–	–	–
O=C(CN1CCN(Cc2ccc(C#Cc3ccc(OCC4(C(=O)NO)CCOCC4)cc3)cc2)CC1)N1CCOCC1	> 200	1.7	12.5 (≈ 7.21 µg/mL)	25 (≈ 14.4 µg/mL)	> 200	–	–	–	–	–
CC(C)(O)C#CC#Cc1ccc(OCC2(C(=O)NO)CCOCC2)cc1	> 200	139	25 (≈ 8.94 µg/mL)	6.25 (≈ 2.23 µg/mL)	200 (≈ 71.5 µg/mL)	–	–	–	–	–
CN(C)CC1CN(Cc2ccc(C#Cc3ccc(OCC4(C(=O)NO)CCOCC4)cc3)cc2)CCO1 (stereo not given)	100 (≈ 50.8 µg/mL)	5.8	3.13 (≈ 1.59 µg/mL)	6.25 (≈ 3.17 µg/mL)	200 (≈ 102 µg/mL)	–	–	–	–	–
O=C(NO)C1(C[S+]([O-])c2ccc(C#Cc3ccc(CN4CCOCC4)cc3)cc2)CCOCC1 (racemic)	25 (≈ 12.1 µg/mL)	3.1	< 0.2	< 0.2	1.56 (≈ 0.753 µg/mL)	–	–	96	97	–
C[C@@H]1CN(Cc2ccc(C#Cc3ccc(OCC4(C(=O)NO)CCOCC4)cc3)cc2)C[C@H](C)O1	> 200	2.6	3.13 (≈ 1.5 µg/mL)	0.39 (≈ 0.187 µg/mL)	12.5 (≈ 5.98 µg/mL)	–	–	75	92	–
